Patent publication US20230226043A1 (priority 2020, published 2023)

Columns and labels:
non-senescent BV2 cells = experiment: Viability of non-senescent BV2 cells, sulforhodamine B (SRB) assay; format: cell-based; details: 48 h exposure, masitinib 0.1-2 μM and/or isoquercetin 1-20 μM
Procedure: (§1) BV2 cells are retroviral-immortalized microglia-like cells, which are used as a model for cellular senescence. BV2 cells were cultured in Dulbecco's modified Eagle's medium supplemented with 10% heat-inactivated fetal bovine serum (hiFBS) and plated in 6-well multiwell plates for treatment and flow cytometry analysis.
(§2) For cellular viability analysis of non-senescent cells (BV2 cells) and senescent cells (BV2 cells pretreated with TMZ), cells were plated in 96-well multiwell plates during 72 hours. […] After 48 hours of treatment, cell viability was analyzed by sulforhodamine B (SRB) assay. The optical density (OD) of each well was read in a 96-well plate reader at 540 nm. The OD of the SRB solution is directly proportional to the cell number.

OC43 [1] = experiment: Dose-response analysis of OC43 infection in A549-mRuby cells; format: cell-based, human beta coronavirus OC43 (HCoV-OC43); details: Betacoronavirus 1, OC43, A549, 48 h, read-out: EC50 against OC43 infection
Procedure: Dose-response analysis of OC43 infection was done similarly to the drug screening, except cells were seeded at a concentration of 5,000 cells per well and the media contained 2% BCS instead of 10% BCS. OC43 staining was performed 2 days after infection and analyzed similarly to what was described for the drug screening. A sigmoid fit was used to extract EC50 values using Matlab.

coxsackievirus B3 (CVB3) = experiment: Picornavirus infection of Huh7 cells, plaque titration; format: cell-based; details: 10 M [sic] masitinib, MOI 0.01, 24 h
Procedure: (§3) Prior to infection, Huh7 cells were pretreated for two hours. Virus was diluted using serum-free DMEM (SFM) to achieve an MOI of 0.01. Cell supernatants (collected at 24 hours post infection) were dilutions in SFM and used to inoculate Vero cells for 10-15 min at 37 C. Cells were incubated for 2 days at 37 C after overlaying them DMEM containing 2% NBCS and 0.8% agarose. […] The number of plaque forming units (PFU/per milliliter) were then calculated.

[2] = test system: human rhinovirus 16 (HRV16); experiment: as above; format: cell-based; details: 10 M [sic] masitinib, MOI 0.01, 24 h
Procedure: as §3

[3] = test system: human rhinovirus 14 (HRV14); experiment: as above; format: cell-based; details: 10 M [sic] masitinib, MOI 0.01, 24 h
Procedure: as §3

[4] = test system: human rhinovirus 2 (HRV2); experiment: as above; format: cell-based; details: 10 M [sic] masitinib, MOI 0.01, 24 h
Procedure: as §3

[5] = test system: Chikungunya virus (CHIKV); experiment: Chikungunya virus infection; format: cell-based; details: 10 μM, n=3, p>0.07
OC43 [6] = experiment: OC43 replication in primary human airway epithelial cells; format: cell-based, human beta coronavirus OC43 (HCoV-OC43); details: Betacoronavirus 1, OC43, Epithelial cell, read-out: EC50, inhibition of OC43 replication
[7] = biological target: picornaviruses 3C protease (Coxsackievirus B3, UniProt P03313); experiment: 3C protease activity assay, luciferase reporter in Huh7 cells; details: n=6, p-value=7×10-6
picornaviruses 3C protease, sequence (P03313 1541-1723 limits assumed): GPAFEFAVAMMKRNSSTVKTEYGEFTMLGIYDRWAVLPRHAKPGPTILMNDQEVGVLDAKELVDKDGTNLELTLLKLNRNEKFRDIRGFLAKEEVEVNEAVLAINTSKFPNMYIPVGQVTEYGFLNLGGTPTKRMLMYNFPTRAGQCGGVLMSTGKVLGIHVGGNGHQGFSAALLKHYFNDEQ

SARS-CoV-2 [8] = experiment: SARS-CoV-2 intranasal challenge of K18-hACE2 mice; details: bid, ip, vs PBS; for clinical score: 1-6 days post infection
A549-mRuby cells = experiment: Cell growth in the drug screen (cell numbers day 4 / day 0); format: cell-based, human
Procedure: (§4) Cells were seeded in a final volume of […] with DMEM+10% BCS. […] All the following steps were performed at room temperature. […] The screen was performed twice.

OC43 [9] = experiment: Drug repurposing screen, OC43 nucleoprotein staining in A549-mRuby cells; format: cell-based, human beta coronavirus OC43 (HCoV-OC43); details: for % staining of OC43: normalized to no-drug controls in the same plate
Procedure: as §4

[10] = test system: lymphocytic choriomeningitis virus (LCMV); format: cell-based; details: 10 μM, n=2, p>0.07
measles virus (MeV) = experiment: Measles virus inhibition assay in Vero cells, luciferase; format: cell-based; details: 10 μM, n=3, p>0.07
Procedure: Vero cells were infected with a luciferase-expressing measles virus at an MOI of 0.01 for 90 minutes. The inoculum was removed and added fresh medium containing masitinib or DMSO to the cells for further culture. Three days later, firefly luciferase activity was measured by adding 0.5 mM of D-Luciferin to each well and was quantified with an Infinite M200 Pro multimode microplate reader.

influenza A virus (IAV) = experiment: Influenza A infection of MDCK-SIAT1-TMPRSS2 cells; format: cell-based, Influenza A/Puerto Rico/8/1934 (PR8); details: 10 μM, n=3, p>0.07
Procedure: MDCK-SIAT1-TMPRSS2 cells were infected with Influenza A/Puerto Rico/8/1934 (PR8) at an MOI of 0.01 TCID50/cell. Following a 1 hour adsorption, virus was removed and the cells were washed. […] Supernatants were harvested and clarified at 20 hours post infection. The supernatants were titrated using TCID on MDCK-SIAT1-TMPRSS2 cells.

senescent BV2 cells = experiment: Viability of senescent BV2 cells (pretreated with TMZ), SRB assay; format: cell-based; details: for cell viability of senescent BV2 cells, single agent: single agent below the high concentrations (2 μM masitinib, 20 μM isoquercetin)
Procedure: as §1
BV2 cells were treated with temozolomide (TMZ), an alkylating agent inducing DNA damage, in order to induce senescence of the cells. For senescence induction studies, cells were plated and treated twice with increasing doses (10-150 μM) of TMZ during 5 hours every 24 hours. After exposure of BV2 cells to two successive treatments with TMZ, their proliferation was reduced and the cells developed a characteristic senescent phenotype with enlarged size and flat-granulated shape. The senescent phenotype of BV2 cells after TMZ-induced genotoxicity was further confirmed by measuring the number of cells displaying β-gal activity, a well-recognized marker of cellular senescence. After the second TMZ-treatment, flow cytometry analysis was thus carried out using a 5-Dodecanoylaminofluorescein Di-β-D-Galactopyranoside (C12FDG) kit to measure β-galactosidase activity by the alkalinization of lysosomes as described by the manufacturer's instructions (Thermo Fisher Scientific, #D2893). TMZ induced a dose-dependent increase in the number β-gal+ cells. Up to 60% of β-gal+BV2 cells, i.e., senescent cells, were obtained at a TMZ concentration of 100 μM (data not shown).
as §2

SARS-CoV-2 [11] = experiment: SARS-CoV-2 progeny production, plaque titers on Vero E6 cells; format: cell-based; details: 10 μM; for decrease of SARS-CoV-2 progeny production: 2 h pre-treatment, MOI 0.5, supernatant 2 days
Procedure: For SARS-CoV-2 plaque titers, cell supernatants from the infection described above were serially diluted (10-fold steps were used) and used to infect Vero E6 cells for 1 hour. Inoculum was removed and 1.25% methylcellulose DMEM solution was added to the cells and incubated for 3 days. Plates were fixed in 1:10 formalin for 1 hour, stained with crystal violet for 1 hour and were counted to determine plaque forming units (PFU)/ml.

SARS-CoV-2 [12] = details: 10 μM; cited from earlier work
[13] = 25 or 50 mg/kg, 4 and 6 days post infection

Cc1ccc(NC(=O)c2ccc(CN3CCN(C)CC3)cc2)cc1Nc1nc(-c2cccnc2)cs1 [masitinib, 4-(4-methylpiperazin-1-ylmethyl)-N-[4-methyl-3-(4-pyridin-3ylthiazol-2-ylamino)phenyl]benzamide]
cell viability of non-senescent proliferating BV2 cells (non-senescent BV2 cells): no significant change in cell viability | EC50 (OC43 [1]): 2100 nM | replication of coxsackievirus B3 (CVB3) (coxsackievirus B3 (CVB3)): effective in blocking the replication | replication of human rhinovirus 16 (HRV16) [2]: effective in blocking the replication | replication of human rhinovirus 14 (HRV14) [3]: effective in blocking the replication | replication of human rhinovirus 2 (HRV2) [4]: effective in blocking the replication | effect on cells infected by Chikungunya virus (CHIKV) [5]: did not show a significant effect | EC50 (OC43 [6]): 580 nM | activity of the 3C protease in cells [7]: significantly inhibited | clinical score (SARS-CoV-2 [8]; 25 mg/kg): significant decrease | clinical score (SARS-CoV-2 [8]; 50 mg/kg): significant decrease | SARS-CoV-2 viral load in the lung (SARS-CoV-2 [8]; [13]): significant decrease | SARS-CoV-2 viral load in the nasal turbinates (SARS-CoV-2 [8]; [13]): significant decrease | number of cells at day 4 divided by number of cells at day 0 (A549-mRuby cells; screen repeat #1): 4.3 | number of cells at day 4 divided by number of cells at day 0 (A549-mRuby cells; screen repeat #2): 4.7 | mean % staining of OC43 (OC43 [9]; mean of two screen repeats, normalized to no-drug controls (=100), drug at 10 PM as printed, day 4): 12.2% | % staining of OC43 (OC43 [9]; screen repeat #1): 14.4% | % staining of OC43 (OC43 [9]; screen repeat #2): 10.1% | effect on cells infected by lymphocytic choriomeningitis virus (LCMV) [10]: did not show a significant effect | effect on cells infected by measles virus (MeV) (measles virus (MeV)): did not show a significant effect | effect on cells infected by influenza A virus (IAV) (influenza A virus (IAV)): did not show a significant effect | cytotoxicity at 2 µM (senescent BV2 cells; Mus musculus, BV-2, 48 h, read-out: reduction in senescent cell viability): ~25% | cell viability of senescent BV2 cells, single agent (senescent BV2 cells): modest reduction in cell viability | decrease of SARS-CoV-2 progeny production (SARS-CoV-2 [11]): over 5 logs | decrease of SARS-CoV-2 progeny production (SARS-CoV-2 [11]; listed as Masitinib): > 5 logs | reduction in viral titers (SARS-CoV-2 progeny) (SARS-CoV-2 [11]; n=3, p<0.001): statistically significant

O=CC(CC1CCNC1=O)NC(=O)C(CC1CCCCC1)NC(=O)c1cc2ccccc2[nH]1 (stereo not shown) [11a]
inhibition of SARS-CoV-2 progeny production (SARS-CoV-2 [12]): 2 logs

O=c1c(O[C@@H]2O[C@H](CO)[C@@H](O)[C@H](O)[C@H]2O)c(-c2ccc(O)c(O)c2)oc2cc(O)cc(O)c12 [isoquercetin, 2-(3,4-dihydroxyphenyl)-5,7-dihydroxy-3-[(2S,3R,4S,5S,6R)-3,4,5-trihydroxy-6-(hydroxymethyl)oxan-2-yl]oxychromen-4-one]
cell viability of non-senescent proliferating BV2 cells (non-senescent BV2 cells): no significant change in cell viability | cytotoxicity at 20 µM (senescent BV2 cells; Mus musculus, BV-2, 20 μM isoquercetin alone, 48 h, TMZ-induced senescent BV2 cells, read-out: reduction in senescent cell viability): ~25% | cell viability of senescent BV2 cells, single agent (senescent BV2 cells): modest reduction in cell viability

O=CC(CC1CCNC1=O)NC(=O)C(Cc1cccc(F)c1)NC(=O)c1cc2ccccc2[nH]1 (stereo not shown) [11b]
inhibition of SARS-CoV-2 progeny production (SARS-CoV-2 [12]): 2 logs
